Laboratory results reported in patent US20260125727A1, “METHOD FOR PRODUCING A COMPOSITION, A COMPOSITION COMPRISING AN OLIGOSACCHARIDE OBTAINED THEREBY, AND USES THEREOF” (MEIJI CO., LTD., priority 2022, published 2026).

Legend:
[1] = system: Parabacteroides bacteria; assay: Promotion of growth of Parabacteroides bacteria in the intestinal microbiota; conditions: studies of the inventors, no method given
[2] = Evaluation of thermal stability of aqueous solution (residual ratio of galactosylkojibiose after heat treatment, HPLC); format: physicochemical; conditions: for change of galactosylkojibiose HPLC peak after heat treatment: 120° C. for 20 minutes, 12 wt % solution in buffer
Procedure: Buffers having various pH values (100 mM citrate-phosphate buffer for pH 3 to 6 and 100 mM phosphate buffer for pH 6 to 8) were used to dissolve the purified and fractionated galactosylkojibiose obtained in Example 3 so that the resulting solutions should have 12° Bx (12 wt %). The solutions were subjected to a heat treatment at 60° C., 80° C., 100° C., and 120° C. for 20 minutes by using an autoclave, and then residual ratio of galactosylkojibiose was evaluated.
The residual ratio was calculated from the results obtained by using HPLC method performed under the following conditions. • Column: SUPELCO apHera™ NH2 HPLC Column • Mobile phase: 68% acetonitrile • Column temperature: 35° C. • Flow rate: 1.0 mL/min • Detection: RI

[3] = system: Bifidobacterium bacteria; assay: Promotion of growth of Bifidobacterium bacteria in the intestinal microbiota; conditions: studies of the inventors, no method given

SMILES	growth of Parabacteroides bacteria in the intestinal microbiota [1]	decay of galactosylkojibiose after heat treatment ([2]; 60° C. for 20 minutes, any pH value (pH 3 to 8))	change of galactosylkojibiose HPLC peak after heat treatment ([2]; pH 6 or lower)	change of galactosylkojibiose HPLC peak after heat treatment ([2]; pH 7 or higher, new peak at around 12.1 minutes)	growth of Bifidobacterium bacteria in the intestinal microbiota [3]
OCC1O[C@H](OC2C(O)[C@H](O[C@@H]3OC(CO)[C@H](O)C(O)C3O)C(CO)O[C@H]2O)C(O)C(O)[C@@H]1O (stereo partly drawn) [galactosylkojibiose, α-D-glucopyranosyl-(1→2)-[β-D-galactopyranosyl-(1→4)-]D-glucopyranoside]	promote the growth	not observed	no significant change	decay of the chromatographic peak	promote the growth
OCC1O[C@H](OC2[C@H](O)OC(CO)[C@@H](O)[C@@H]2O)C(O)[C@@H](O)[C@@H]1O (stereo partly shown) [kojibiose]	promote the growth				promote the growth
